# According to ChEMBL document CHEMBL6177993, “De Novo 3-(Phenylcarbamoyl) Benzoate Analogues: Efficacy against Multidrug-Resistant S. aureus and Elucidation of the Biodistribution Profile” (J Med Chem, 2025):
# Activity calls are given as the source filed them. No cut-off for these calls is given here.
# Columns and labels:
# Enterococcus faecalis = assay: Antibacterial activity against Enterococcus faecalis ATCC 35550 assessed as reduction in bacterial growth measured after 18 to 24 hrs by broth microdilution method; format: functional; conditions: time 18-24 hrs
# Bacillus subtilis = assay: Antibacterial activity against Bacillus subtilis IITKSM1 assessed as reduction in bacterial growth measured after 18 to 24 hrs by broth microdilution method; format: functional; conditions: time 18-24 hrs
# Staphylococcus aureus [1] = assay: Antibacterial activity against Staphylococcus aureus ATCC 29213 assessed as reduction in bacterial growth measured after 18 to 24 hrs by broth microdilution method; format: functional; conditions: time 18-24 hrs
# Klebsiella pneumoniae = assay: Antibacterial activity against Klebsiella pneumoniae BAA 1705 assessed as reduction in bacterial growth measured after 18 to 24 hrs by broth microdilution method; format: functional; conditions: time 18-24 hrs
# Acinetobacter baumannii = assay: Antibacterial activity against Acinetobacter baumannii BAA 1605 assessed as reduction in bacterial growth measured after 18 to 24 hrs by broth microdilution method; format: functional; conditions: time 18-24 hrs
# Pseudomonas aeruginosa = assay: Antibacterial activity against Pseudomonas aeruginosa ATCC 27853 assessed as reduction in bacterial growth measured after 18 to 24 hrs by broth microdilution method; format: functional; conditions: time 18-24 hrs
# Escherichia coli = assay: Antibacterial activity against Escherichia coli ATCC 25922 assessed as reduction in bacterial growth measured after 18 to 24 hrs by broth microdilution method; format: functional; conditions: time 18-24 hrs
# Staphylococcus aureus [2] = assay: Antibacterial activity against Staphylococcus aureus assessed as reduction in bacterial growth; format: functional
# Staphylococcus aureus [3] = assay: Antibacterial activity against methicillin-sensitive Staphylococcus aureus ATCC 29213 assessed as reduction in bacterial growth measured after 18 to 24 hrs by broth microdilution method; format: functional; conditions: time 18-24 hrs
# Staphylococcus aureus [4] = assay: Antibacterial activity against methicillin-resistant Staphylococcus aureus NRS 100 assessed as reduction in bacterial growth measured after 18 to 24 hrs by broth microdilution method; format: functional; conditions: time 18-24 hrs
# Staphylococcus aureus [5] = assay: Antibacterial activity against methicillin-resistant Staphylococcus aureus NRS 119 assessed as reduction in bacterial growth measured after 18 to 24 hrs by broth microdilution method; format: functional; conditions: time 18-24 hrs
# Staphylococcus aureus [6] = assay: Antibacterial activity against methicillin-resistant Staphylococcus aureus NRS 129 assessed as reduction in bacterial growth measured after 18 to 24 hrs by broth microdilution method; format: functional; conditions: time 18-24 hrs
# Staphylococcus aureus [7] = assay: Antibacterial activity against methicillin-resistant Staphylococcus aureus NRS 186 assessed as reduction in bacterial growth measured after 18 to 24 hrs by broth microdilution method; format: functional; conditions: time 18-24 hrs
# Staphylococcus aureus [8] = assay: Antibacterial activity against methicillin-resistant Staphylococcus aureus NRS 191 assessed as reduction in bacterial growth measured after 18 to 24 hrs by broth microdilution method; format: functional; conditions: time 18-24 hrs
# Staphylococcus aureus [9] = assay: Antibacterial activity against methicillin-resistant Staphylococcus aureus NRS 192 assessed as reduction in bacterial growth measured after 18 to 24 hrs by broth microdilution method; format: functional; conditions: time 18-24 hrs
# Staphylococcus aureus [10] = assay: Antibacterial activity against methicillin-resistant Staphylococcus aureus NRS 193 assessed as reduction in bacterial growth measured after 18 to 24 hrs by broth microdilution method; format: functional; conditions: time 18-24 hrs
# Staphylococcus aureus [11] = assay: Antibacterial activity against methicillin-resistant Staphylococcus aureus NRS 194 assessed as reduction in bacterial growth measured after 18 to 24 hrs by broth microdilution method; format: functional; conditions: time 18-24 hrs
# Staphylococcus aureus [12] = assay: Antibacterial activity against methicillin-resistant Staphylococcus aureus NRS 198 assessed as reduction in bacterial growth measured after 18 to 24 hrs by broth microdilution method; format: functional; conditions: time 18-24 hrs
# Staphylococcus aureus [13] = assay: Antibacterial activity against vacomycin-resistant Staphylococcus aureus VRS 1 assessed as reduction in bacterial growth measured after 18 to 24 hrs by broth microdilution method; format: functional; conditions: time 18-24 hrs
# Staphylococcus aureus [14] = assay: Antibacterial activity against vacomycin-resistant Staphylococcus aureus VRS 4 assessed as reduction in bacterial growth measured after 18 to 24 hrs by broth microdilution method; format: functional; conditions: time 18-24 hrs
# Staphylococcus aureus [15] = assay: Antibacterial activity against vacomycin-resistant Staphylococcus aureus VRS 12 assessed as reduction in bacterial growth measured after 18 to 24 hrs by broth microdilution method; format: functional; conditions: time 18-24 hrs
# Staphylococcus aureus [16] = assay: Inhibition of biofilm in Staphylococcus aureus ATCC 29213 at 1 times MIC measured after 12 hrs by crystal violet staining based analysis relative to control; format: functional
# Staphylococcus aureus [17] = assay: Inhibition of biofilm in Staphylococcus aureus ATCC 29213 at 0.5 times MIC measured after 12 hrs by crystal violet staining based analysis relative to control; format: functional
# Staphylococcus aureus [18] = assay: Inhibition of biofilm in Staphylococcus aureus ATCC 29213 at 2 times MIC measured after 12 hrs by crystal violet staining based analysis relative to control; format: functional
# Staphylococcus aureus [19] = assay: Inhibition of biofilm in Staphylococcus aureus ATCC 29213 at 2 ug/ml measured after 12 hrs by crystal violet staining based analysis; format: functional, organism-based; conditions: dose 2.0 µg/ml
# Staphylococcus aureus [20] = assay: Induction of morphological changes in Staphylococcus aureus ATCC 29213 assessed as cell shrinkage at 10 times MIC measured after 4 hrs by atomic force microscopy based analysis (reference value: 60.170 nanometer); format: functional
Structure (SMILES),MIC (Enterococcus faecalis),MIC (Bacillus subtilis),MIC (Staphylococcus aureus [1]),MIC (Klebsiella pneumoniae),MIC (Acinetobacter baumannii),MIC (Pseudomonas aeruginosa),MIC (Escherichia coli),MIC (Staphylococcus aureus [2]),also measured
O=C(Nc1ccccc1)c1cc(Cl)ccc1O,,,,,,,,≥ 2.47 µg/mL,
N=C(N)NCCC[C@H](NC(=O)[C@H](CCCNC(=N)N)NC(=O)[C@H](CCCNC(=N)N)NC(=O)Cn1cc(COc2ccccc2-c2ccc(-c3ccc(-c4ccccc4OCc4cn(CC(=O)N[C@@H](CCCNC(=N)N)C(=O)N[C@@H](CCCNC(=N)N)C(=O)N[C@@H](CCCNC(=N)N)C(N)=O)nn4)cc3)cc2)nn1)C(N)=O,,,,,,,,6.05 µg/mL,
O=C(O)c1cccc(C(=O)Nc2c(C(c3ccccc3)c3ccccc3)cc(Cl)cc2C(c2ccccc2)c2ccccc2)c1,1 µg/mL,2 µg/mL,2 µg/mL,> 64 µg/mL,> 64 µg/mL,> 64 µg/mL,> 64 µg/mL,,MIC (Staphylococcus aureus [3]): 4 µg/mL; MIC (Staphylococcus aureus [4]): 4 µg/mL; MIC (Staphylococcus aureus [5]): 4 µg/mL; MIC (Staphylococcus aureus [6]): 4 µg/mL; MIC (Staphylococcus aureus [7]): 4 µg/mL; MIC (Staphylococcus aureus [8]): 4 µg/mL; MIC (Staphylococcus aureus [9]): 4 µg/mL; MIC (Staphylococcus aureus [10]): 8 µg/mL; MIC (Staphylococcus aureus [11]): 8 µg/mL; MIC (Staphylococcus aureus [12]): 8 µg/mL; MIC (Staphylococcus aureus [13]): 4 µg/mL; MIC (Staphylococcus aureus [14]): 4 µg/mL; MIC (Staphylococcus aureus [15]): 4 µg/mL; inhibition (INH) (Staphylococcus aureus [16]): 96%; inhibition (INH) (Staphylococcus aureus [17]): >50%; inhibition (INH) (Staphylococcus aureus [18]): 95%; inhibition (Staphylococcus aureus [19]): Active
CC1(C)S[C@@H]2[C@H](NC(=O)[C@H](N)c3ccccc3)C(=O)N2[C@H]1C(=O)O [AMPICILLIN],,,,,,,,,Activity (Staphylococcus aureus [20]): 36.075 nm
CN(C)c1ccc(O)c2c1C[C@H]1C[C@H]3[C@H](N(C)C)C(O)=C(C(N)=O)C(=O)[C@@]3(O)C(O)=C1C2=O [MINOCYCLINE],,,,,,,,,MIC (Staphylococcus aureus [3]): 0.25 µg/mL; MIC (Staphylococcus aureus [4]): > 64 µg/mL; MIC (Staphylococcus aureus [5]): > 64 µg/mL; MIC (Staphylococcus aureus [6]): 8 µg/mL; MIC (Staphylococcus aureus [7]): 8 µg/mL; MIC (Staphylococcus aureus [8]): 64 µg/mL; MIC (Staphylococcus aureus [9]): 32 µg/mL; MIC (Staphylococcus aureus [10]): > 64 µg/mL; MIC (Staphylococcus aureus [11]): 2 µg/mL; MIC (Staphylococcus aureus [12]): 64 µg/mL; MIC (Staphylococcus aureus [13]): > 64 µg/mL; MIC (Staphylococcus aureus [14]): > 64 µg/mL; MIC (Staphylococcus aureus [15]): 16 µg/mL
COc1ccc2c(c[n+]3c4c2ccc2c5c(cc(c24)CC3)OCO5)c1NC(=O)c1csnn1.[Cl-],,,,,,,,2 µg/mL,
NCCCC[C@H](N)C(=O)N[C@@H](Cc1ccccc1)CN(CC(=O)NCC12CC3CC(CC(C3)C1)C2)C(=O)CC12CC3CC(CC(C3)C1)C2,,,,,,,,1.56 µg/mL,

# The next lines start with results.
MIC (Enterococcus faecalis),MIC (Bacillus subtilis),MIC (Staphylococcus aureus [1]),MIC (Klebsiella pneumoniae),MIC (Acinetobacter baumannii),MIC (Pseudomonas aeruginosa),MIC (Escherichia coli),Structure (SMILES),MIC (Staphylococcus aureus [2]),also measured
8 µg/mL,4 µg/mL,4 µg/mL,> 64 µg/mL,> 64 µg/mL,> 64 µg/mL,> 64 µg/mL,O=C(O)c1cccc(C(=O)Nc2c(C(c3ccccc3)c3ccccc3)cc([N+](=O)[O-])cc2C(c2ccccc2)c2ccccc2)c1,,
16 µg/mL,1 µg/mL,> 64 µg/mL,> 64 µg/mL,> 64 µg/mL,> 64 µg/mL,> 64 µg/mL,O=C(O)c1cccc(C(=O)Nc2c(C(c3ccccc3)c3ccccc3)cc(C(F)(F)F)cc2C(c2ccccc2)c2ccccc2)c1,,
2 µg/mL,8 µg/mL,16 µg/mL,> 64 µg/mL,> 64 µg/mL,> 64 µg/mL,> 64 µg/mL,CCCCc1cc(C(c2ccccc2)c2ccccc2)c(NC(=O)c2cccc(C(=O)O)c2)c(C(c2ccccc2)c2ccccc2)c1,,
2 µg/mL,2 µg/mL,2 µg/mL,> 64 µg/mL,> 64 µg/mL,> 64 µg/mL,> 64 µg/mL,O=C(O)c1cccc(C(=O)Nc2c(C(c3ccccc3)c3ccccc3)cc(OC(F)(F)F)cc2C(c2ccccc2)c2ccccc2)c1,,
64 µg/mL,64 µg/mL,4 µg/mL,> 64 µg/mL,> 64 µg/mL,> 64 µg/mL,> 64 µg/mL,Cc1cc(C(c2ccccc2)c2ccccc2)c(NC(=O)c2cccc(C(=O)O)c2)c(C(c2ccccc2)c2ccccc2)c1,,
